Data as given in PubChem BioAssay AID2060494 (Molecular Pharmacology Branch, DTP, NCI, 2025).

Test system: 435261-313-R-J1-PDC complex spheroid viability
Assay: Anticancer human tumor 435261-313-R-J1-PDC patient-derived colon adenocarcinoma cell line growth inhibition [GQUAD]
Conditions: for IC50: curve of first compound; for viability, T/C: stronger effect = lower value
Method in brief: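 Multi-cell-type spheroids of tumor cells with HUVEC and mesenchymal stem cells, treated with drug combinations. Concentrations descend in half-log steps from near clinical Cmax, or from 10 microM where Cmax is unknown; viability read-out.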

[1] = second compound 0.0316 µM, first compound 0.0316 µM
[2] = second compound 0.0316 µM, first compound 0.1 µM
[3] = second compound 0.0316 µM, first compound 0.316 µM
[4] = second compound 0.0316 µM, first compound 1 µM
[5] = second compound 0.0316 µM, first compound 3.16 µM
[6] = second compound 0.0316 µM, first compound 10 µM
[7] = second compound 0.1 µM, first compound 0.0316 µM
[8] = second compound 0.1 µM, first compound 0.1 µM
[9] = second compound 0.1 µM, first compound 0.316 µM
[10] = second compound 0.1 µM, first compound 1 µM
[11] = second compound 0.1 µM, first compound 3.16 µM
[12] = second compound 0.1 µM, first compound 10 µM
[13] = second compound 0.316 µM, first compound 0.0316 µM
[14] = second compound 0.316 µM, first compound 0.1 µM
[15] = second compound 0.316 µM, first compound 0.316 µM
[16] = second compound 0.316 µM, first compound 1 µM
[17] = second compound 0.316 µM, first compound 3.16 µM
[18] = second compound 0.316 µM, first compound 10 µM
[19] = second compound 1 µM, first compound 0.0316 µM
[20] = second compound 1 µM, first compound 0.1 µM
[21] = second compound 1 µM, first compound 0.316 µM
[22] = second compound 1 µM, first compound 1 µM
[23] = second compound 1 µM, first compound 3.16 µM
[24] = second compound 1 µM, first compound 10 µM
[25] = second compound 3.16 µM, first compound 0.0316 µM
[26] = second compound 3.16 µM, first compound 0.1 µM
[27] = second compound 3.16 µM, first compound 0.316 µM
[28] = second compound 3.16 µM, first compound 1 µM
[29] = second compound 3.16 µM, first compound 3.16 µM
[30] = second compound 3.16 µM, first compound 10 µM
[31] = second compound 10 µM, first compound 0.0316 µM
[32] = second compound 10 µM, first compound 0.1 µM
[33] = second compound 10 µM, first compound 0.316 µM
[34] = second compound 10 µM, first compound 1 µM
[35] = second compound 10 µM, first compound 3.16 µM
[36] = second compound 10 µM, first compound 10 µM
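Further: spheroids exposed to the agents for seven days before readout.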
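Wherever viability, T/C is given: percent of vehicle control viability with DMSO wells as 100%.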

## C#Cc1c(F)ccc2cc(O)cc(-c3ncc4c(N5CC6CCC(C5)N6)nc(OCC56CCCN5CC(F)C6)nc4c3F)c12 (stereo unspecified) + CN(C)c1ccc(Nc2c3ccc(NC(=O)CCN4CCCC4)cc3nc3cc(NC(=O)CCN4CCCC4)ccc23)cc1
Second compound 0.0316 µM
  IC50: > 10 µM
Second compound 0.1 µM
  IC50: > 10 µM
Second compound 0.316 µM
  IC50: > 10 µM
Second compound 1 µM
  IC50: > 10 µM
Second compound 3.16 µM
  IC50: 3.58 µM
Second compound 10 µM
  IC50: 0.199 µM
[1]
  viability, T/C: 77%
[2]
  viability, T/C: 118%
[3]
  viability, T/C: 114%
[4]
  viability, T/C: 58.1%
[5]
  viability, T/C: 64.9%
[6]
  viability, T/C: 48.8%
[7]
  viability, T/C: 123%
[8]
  viability, T/C: 110%
[9]
  viability, T/C: 94.6%
[10]
  viability, T/C: 99.6%
[11]
  viability, T/C: 66.1%
[12]
  viability, T/C: 60.5%
[13]
  viability, T/C: 89.3%
[14]
  viability, T/C: 130%
[15]
  viability, T/C: 82%
[16]
  viability, T/C: 78%
[17]
  viability, T/C: 50.7%
[18]
  viability, T/C: 64%
[19]
  viability, T/C: 82.5%
[20]
  viability, T/C: 87.9%
[21]
  viability, T/C: 103%
[22]
  viability, T/C: 64.5%
[23]
  viability, T/C: 62.4%
[24]
  viability, T/C: 54.7%
[25]
  viability, T/C: 67.8%
[26]
  viability, T/C: 65.8%
[27]
  viability, T/C: 42.2%
[28]
  viability, T/C: 42.5%
[29]
  viability, T/C: 56.7%
[30]
  viability, T/C: 9.31%
[31]
  viability, T/C: 44.2%
[32]
  viability, T/C: 73.5%
[33]
  viability, T/C: 42.1%
[34]
  viability, T/C: 23.6%
[35]
  viability, T/C: 19.8%
[36]
  viability, T/C: 0.2%

## C=CCn1c(=O)c2cnc(Nc3ccc(N4CCN(C)CC4)cc3)nc2n1-c1cccc(C(C)(C)O)n1 + CN(C)c1ccc(Nc2c3ccc(NC(=O)CCN4CCCC4)cc3nc3cc(NC(=O)CCN4CCCC4)ccc23)cc1
Second compound 0.0316 µM
  IC50: > 10 µM
Second compound 0.1 µM
  IC50: > 10 µM
Second compound 0.316 µM
  IC50: 7.58 µM
Second compound 1 µM
  IC50: > 10 µM
Second compound 3.16 µM
  IC50: > 10 µM
Second compound 10 µM
  IC50: 0.353 µM
[1]
  viability, T/C: 128%
[2]
  viability, T/C: 145%
[3]
  viability, T/C: 84.1%
[4]
  viability, T/C: 103%
[5]
  viability, T/C: 81.8%
[6]
  viability, T/C: 65.2%
[7]
  viability, T/C: 96.4%
[8]
  viability, T/C: 89.1%
[9]
  viability, T/C: 87.9%
[10]
  viability, T/C: 69.7%
[11]
  viability, T/C: 91.7%
[12]
  viability, T/C: 73%
[13]
  viability, T/C: 92.7%
[14]
  viability, T/C: 81.5%
[15]
  viability, T/C: 86.6%
[16]
  viability, T/C: 78.1%
[17]
  viability, T/C: 64%
[18]
  viability, T/C: 45.5%
[19]
  viability, T/C: 80.8%
[20]
  viability, T/C: 98.7%
[21]
  viability, T/C: 66.6%
[22]
  viability, T/C: 90.4%
[23]
  viability, T/C: 75.8%
[24]
  viability, T/C: 54.6%
[25]
  viability, T/C: 50.9%
[26]
  viability, T/C: 48.2%
[27]
  viability, T/C: 63.4%
[28]
  viability, T/C: 70.1%
[29]
  viability, T/C: 57.8%
[30]
  viability, T/C: 34%
[31]
  viability, T/C: 32.7%
[32]
  viability, T/C: 90.5%
[33]
  viability, T/C: 44.8%
[34]
  viability, T/C: 31.8%
[35]
  viability, T/C: 23.9%
[36]
  viability, T/C: 9.35%

## CCCS(=O)(=O)Nc1ccc(F)c(C(=O)c2c[nH]c3ncc(-c4ccc(Cl)cc4)cc23)c1F + CN(C)c1ccc(Nc2c3ccc(NC(=O)CCN4CCCC4)cc3nc3cc(NC(=O)CCN4CCCC4)ccc23)cc1
Second compound 0.0316 µM
  IC50: 5.69 µM
Second compound 0.1 µM
  IC50: 5.64 µM
Second compound 0.316 µM
  IC50: 5.35 µM
Second compound 1 µM
  IC50: 5.62 µM
Second compound 3.16 µM
  IC50: 3.77 µM
Second compound 10 µM
  IC50: < 0.0316 µM
[1]
  viability, T/C: 123%
[2]
  viability, T/C: 110%
[3]
  viability, T/C: 143%
[4]
  viability, T/C: 123%
[5]
  viability, T/C: 85.6%
[6]
  viability, T/C: 15.8%
[7]
  viability, T/C: 84.3%
[8]
  viability, T/C: 110%
[9]
  viability, T/C: 120%
[10]
  viability, T/C: 92.3%
[11]
  viability, T/C: 81.6%
[12]
  viability, T/C: 19.6%
[13]
  viability, T/C: 124%
[14]
  viability, T/C: 94.6%
[15]
  viability, T/C: 92.1%
[16]
  viability, T/C: 128%
[17]
  viability, T/C: 76.1%
[18]
  viability, T/C: 19.1%
[19]
  viability, T/C: 77.3%
[20]
  viability, T/C: 90.7%
[21]
  viability, T/C: 105%
[22]
  viability, T/C: 92.5%
[23]
  viability, T/C: 77.7%
[24]
  viability, T/C: 22.1%
[25]
  viability, T/C: 82%
[26]
  viability, T/C: 53.6%
[27]
  viability, T/C: 74.7%
[28]
  viability, T/C: 112%
[29]
  viability, T/C: 57.1%
[30]
  viability, T/C: 10.5%
[31]
  viability, T/C: 45.5%
[32]
  viability, T/C: 54.3%
[33]
  viability, T/C: 33.9%
[34]
  viability, T/C: 34%
[35]
  viability, T/C: 33.8%
[36]
  viability, T/C: 7.35%
